Each structure is given as a SMILES string.

Regarding `CCC(O)c1cnc2c(C)c(NC(=O)c3ccc(-c4ccc(F)cc4)cc3)ccc2c1` (centres undefined), the melting point (in general, the temperature, or range, at which the solid turns liquid) fell in the range of 204 to 208 °C. The value for `CC1(C)CCC(C)(C)c2c(C=O)cc(-c3ccccc3)cc21` was 113 °C. In turn, `CCCC(c1ccc(C(=O)O)cc1)N(CCC)c1nc(-c2ccc(Cl)cc2Cl)c(C)s1` (centres undefined) had a melting point of 86 °C. On to `CC(C)(C(N)=O)C(O)(Cn1cncn1)c1ccc(Cl)cc1Cl` (centres undefined), for which the melting point was in the range of 162 to 163 °C. `Cc1ccccc1C(CCC(=O)O)Oc1cc(OCc2ccsc2)ccc1C#N` (centres undefined) returned a melting point of 143 °C. The figure for `CCOC(=O)c1nc(-c2ccc(F)cc2)c(-c2ccc(=O)n(C(C)C)n2)s1` is 193 to 194 °C. Take `CCN(CC)C(=O)c1ccc2ccccc2c1-c1ccc(N(C)C)cc1`: the melting point lay in the range of 140 to 141 °C. The value for `COc1ccc(NC(=O)OCCCl)c(OC)c1NC(=O)OCCCl` was 105 °C.

As to `O=C(NC[C@H]1CN(c2ccc(N3CCN(C(=O)OCc4ccccc4)CC3)c(F)c2)C(=O)O1)C(F)F`, the melting point stood at 147 °C. The figure for `C=CCOc1cc(NC(=O)C2=C(C(=O)N(C)C)CCCC2)ccc1Cl` is 129 to 131 °C. For `C=C1SC(=S)N(c2ccc3cc(-c4ccc(OC)c(C(C)(C)C)c4)ccc3c2)C1=O`, the melting point lay within 281 to 284 °C. Compound `COc1ccc(Cc2nccc3cc(O)ccc23)cc1OC` showed a melting point of 190 to 192 °C. Compound `CCCc1nn(CC)c(C(N)=O)c1N` yielded a melting point of 81 to 83 °C. `Cc1sc(C(=O)NCc2ccc3c(c2)OCO3)cc1[N+](=O)[O-]` showed a melting point of 181 to 183 °C.

Turning to `Cn1c([N+](=O)[O-])cnc1C1=NO[C@H]2CCCCC[C@@H]12` (relative stereo), the melting point fell in the range of 93 to 95 °C. For the compound `CCCCC(=O)N(CCCOCc1ccccc1)Cc1ccc(-c2ccccc2-c2nnn[nH]2)cc1`, the melting point lay in the range of 112 to 115 °C. The value for `CCOC(=O)c1nc2ccc(CO)cc2n1OC` was 110 °C; that for `CCN1C(C(=O)OC)=C(O)c2ccc3ccccc3c2S1(=O)=O` was 179 °C.

`CCCN(CCC)c1c([N+](=O)[O-])cc(C2OCCS2)cc1[N+](=O)[O-]` (centres undefined) registered a melting point of 111 to 112 °C. In turn, `COc1cc2c(cc1OC)C(C)C(C)=NN=C2c1cccc(Cl)c1` (centres undefined) registered a melting point of 156 to 158 °C. The figure for `Cn1nc(C2(OCC3CCN(C(=O)OC(C)(C)C)CC3)C=CC=CC2)c2ccccc2c1=O` (centres undefined) is 167 to 169 °C.

In the case of `CN1C2=C(C(=O)CC(C)(C)C2)C(c2ccc(Cl)c(Oc3ccccc3)c2)C2=C1CC(C)(C)CC2=O`, the melting point fell in the range of 183 to 185 °C. The figure for `CCc1c(Cc2ccccc2)n(COCCO)c(=O)[nH]c1=O` is 120 to 122 °C; for `C=Cc1c(N)nc(-c2ccc(Cl)nc2)nc1C(=O)OC` it is 194 to 195 °C. Regarding `CC(=O)OC1Cc2ccc(F)cc2/C1=C/C(N)=O` (centres undefined), the melting point lay within 202 to 203 °C. In the case of `COc1cc(C=O)ccc1OCc1ccc2ccccc2c1`, the melting point lay within 107 to 108 °C. In turn, `NC(=O)C(c1ccc(C(=O)O)cc1)C(CCc1ccccc1)c1ccccc1N1CCCCC1` (centres undefined) displayed a melting point of 167 to 170 °C. For `Cc1cc(C2(C(F)(F)F)CC(c3ccc(Cl)cc3)=NO2)ccc1N` (centres undefined), the melting point is 118 to 119 °C. As to `COc1cc(C#N)cc(-c2ccc3c(c2)C(C)(C)OC(=O)N3)c1`, the melting point was in the range of 254 to 255 °C. The figure for `COc1cc2c(cc1OC)[C@@H]1CN(C)CC[C@@H]1N=C2c1ccc(NC(=O)C(C)(C)C)cc1` (relative stereo) is 245 °C. `COC(=O)c1nn(-c2ccc(Cl)cc2Cl)c(-c2ccc(Cl)cc2)c1CBr`: the melting point was 145 °C. `CC(=O)N[C@@H](CSC(C)=O)C(=O)NCCSC(C)=O` yielded a melting point of 153 to 154 °C. `N#Cc1cnc2cc3cc(O)ccc3cc2c1Nc1ccc(Cl)cc1Cl` had a melting point of 267 to 269 °C.

As for `O=C(c1ccc(Cl)cc1)c1ccc2c(c1)C(c1cccc(Cl)c1)=NCc1nnnn1-2`, the melting point stood at 220 °C.

The record behind these values is a melting point compilation (Tetko et al.; mined from patent text by program, amines drawn as free bases though some values may be those of a salt).
